Key:
Format in all cases: in vivo
[1] = test system: Plutella xylostella (Diamond Back Moth); test: Example B12 Plutella xylostella feeding/contact activity; conditions: 120 h, application rate of 200 ppm, L2 larvae on treated artificial diet, 5 days after infestation
Description: Plutella xylostella (Diamond Back Moth): Feeding/Contact Activity
(§1) 24-well microtiter plates with artificial diet were treated with aqueous test solutions prepared from 10,000 ppm DMSO stock solutions by pipetting. After drying, the plates were infested with L2 larvae (10 to 15 per well). The samples were assessed for mortality 5 days after infestation.

[2] = test system: Myzus persicae (Green Peach Aphid); test: Example B9 Myzus persicae feeding/contact activity; conditions: foliar, 144 h, application rate of 200 ppm, mixed-age aphids on sprayed sunflower leaf discs, 6 days after infestation
Description: Myzus persicae (Green Peach Aphid): Feeding/Contact Activity
Sunflower leaf discs were placed onto agar in a 24-well microtiter plate and sprayed with aqueous test solutions prepared from 10,000 ppm DMSO stock solutions. After drying, the leaf discs were infested with an aphid population of mixed ages. The samples were assessed for mortality 6 days after infestation.

[3] = test system: Spodoptera littoralis (Egyptian Cotton Leaf Worm); test: Example B14 Spodoptera littoralis anti-feeding activity; conditions: foliar, 72 h, application rate of 200 ppm, L1 larvae on sprayed cotton leaf discs, 3 days after infestation, read-out: control (anti-feeding effect)
Description: Spodoptera littoralis (Egyptian Cotton Leaf Worm): Anti-Feeding Activity
(§2) Cotton leaf discs were placed onto agar in 24-well microtiter plates and sprayed with aqueous test solutions prepared from 10,000 ppm DMSO stock solutions. After drying the leaf discs were infested with five L1 larvae. The samples were assessed for anti-feeding effect in comparison to untreated samples 3 days after infestation. Control of Spodoptera littoralis by a test sample is given when the anti-feedant effect is higher than the untreated sample.

[4] = test system: Euschistus heros (Neotropical Brown Stink Bug); test: Example B5 Euschistus heros mortality and growth inhibition; conditions: 120 h, application rate of 200 ppm, N2 nymphs on sprayed soybean leaves, 5 days after infestation, read-out: effect in at least one of the two categories (mortality or growth inhibition)
Description: Euschistus heros (Neotropical Brown Stink Bug)
Soybean leaves on agar in 24-well microtiter plates were sprayed with aqueous test solutions prepared from 10,000 ppm DMSO stock solutions. After drying the leaves were infested with N2 nymphs. The samples were assessed for mortality and growth inhibition in comparison to untreated samples 5 days after infestation.

[5] = test system: Plutella xylostella (Diamond Back Moth); test: Example B13 Plutella xylostella mortality and growth inhibition; conditions: 120 h, application rate of 200 ppm, L2 larvae on treated artificial diet, 5 days after infestation, read-out: effect in at least one of the two categories (mortality or growth inhibition)
Description: Plutella xylostella (Diamond Back Moth)
as §1, with “mortality and growth inhibition in comparison to untreated samples” for “mortality”

[6] = test system: Plutella xylostella (Diamond Back Moth); test: Example B11 Plutella xylostella growth inhibition activity; conditions: 120 h, application rate of 200 ppm, L2 larvae on treated artificial diet, 5 days after infestation
Description: Plutella xylostella (Diamond Back Moth): Growth Inhibition Activity
as §1, with “growth inhibition in comparison to untreated samples” for “mortality”, “infestation. Control of Plutella xylostella by a test sample is given when the growth inhibition is higher than the untreated sample.” for “infestation.”

[7] = test system: Diabrotica balteata (Corn Root Worm); test: Example B4 Diabrotica balteata mortality; conditions: 96 h, application rate of 200 ppm, L2 larvae on sprayed maize sprouts, 4 days after infestation
Description: Diabrotica Balteata (Corn Root Worm):
(§3) Maize sprouts placed onto an agar layer in 24-well microtiter plates were treated with aqueous test solutions prepared from 10,000 ppm DMSO stock solutions by spraying. After drying, the plates were infested with L2 larvae (6 to 10 per well). The samples were assessed for mortality 4 days after infestation.

[8] = test system: Bemisia tabaci (Cotton White Fly); test: Example B1 Bemisia tabaci feeding/contact activity; conditions: foliar, 144 h, application rate of 200 ppm, adult white flies on sprayed cotton leaf discs, 6 days after incubation
Description: Bemisia tabaci (Cotton White Fly): Feeding/Contact Activity
Cotton leaf discs were placed on agar in 24-well microtiter plates and sprayed with aqueous test solutions prepared from 10,000 ppm DMSO stock solutions. After drying the leaf discs were infested with adult white flies. The samples were checked for mortality 6 days after incubation.

[9] = test system: Spodoptera littoralis (Egyptian Cotton Leaf Worm); test: Example B16 Spodoptera littoralis feeding/contact activity; conditions: foliar, 72 h, application rate of 200 ppm, L1 larvae on sprayed cotton leaf discs, 3 days after infestation
Description: Spodoptera littoralis (Egyptian Cotton Leaf Worm): Feeding/Contact Activity
Cotton leaf discs were placed onto agar in 24-well microtiter plates and sprayed with aqueous test solutions prepared from 10,000 ppm DMSO stock solutions. After drying the leaf discs were infested with five L1 larvae. The samples were assessed for mortality 3 days after infestation.

[10] = test system: Euschistus heros (Neotropical Brown Stink Bug); test: Example B7 Euschistus heros feeding/contact activity; conditions: 120 h, application rate of 200 ppm, N2 nymphs on sprayed soybean leaves, 5 days after infestation
Description: Euschistus heros (Neotropical Brown Stink Bug): Feeding/Contact Activity
Soybean leaves on agar in 24-well microtiter plates were sprayed with aqueous test solutions prepared from 10,000 ppm DMSO stock solutions. After drying the leaves were infested with N2 nymphs. The samples were assessed for mortality 5 days after infestation.

[11] = test system: Spodoptera littoralis (Egyptian Cotton Leaf Worm); test: Example B15 Spodoptera littoralis growth inhibition activity; conditions: foliar, 72 h, application rate of 200 ppm, L1 larvae on sprayed cotton leaf discs, 3 days after infestation, read-out: control (growth inhibition)
Description: Spodoptera littoralis (Egyptian Cotton Leaf Worm): Growth Inhibition Activity
as §2, with “growth inhibition” for “anti-feeding effect”, “growth inhibition” for “anti-feedant effect”

[12] = test system: Diabrotica balteata (Corn Root Worm); test: Example B2 Diabrotica balteata mortality and growth inhibition; conditions: 96 h, application rate of 200 ppm, L2 larvae on sprayed maize sprouts, 4 days after infestation, read-out: effect in at least one of the two categories (mortality or growth inhibition)
Description: Diabrotica balteata (Corn Root Worm)
as §3, with “mortality and growth inhibition in comparison to untreated samples” for “mortality”

[13] = test system: Frankliniella occidentalis (Western Flower Thrips); test: Example B8 Frankliniella occidentalis feeding/contact activity; conditions: foliar, 168 h, application rate of 200 ppm, mixed-age population on sprayed sunflower leaf discs, 7 days after infestation
Description: Frankliniella occidentalis (Western Flower Thrips): Feeding/Contact Activity
Sunflower leaf discs were placed on agar in 24-well microtiter plates and sprayed with aqueous test solutions prepared from 10,000 DMSO stock solutions. After drying the leaf discs were infested with a Frankliniella population of mixed ages. The samples were assessed for mortality 7 days after infestation.

[14] = test system: Myzus persicae (Green Peach Aphid); test: Example B10 Myzus persicae systemic activity; conditions: 144 h, test rate of 24 ppm, roots of infested pea seedlings in test solution, 6 days
Description: Myzus persicae (Green Peach Aphid). Systemic Activity
Roots of pea seedlings infested with an aphid population of mixed ages were placed directly into aqueous test solutions prepared from 10,000 DMSO stock solutions. The samples were assessed for mortality 6 days after placing seedlings into test solutions.

CCS(=O)(=O)c1cc(OCC(F)F)cnc1-c1cn2cnc(SC(F)(F)F)cc2n1 [Compound P4, 2-[5-(2,2-difluoroethoxy)-3-ethylsulfonyl-2-pyridyl]-7-(trifluoromethylsulfanyl)imidazo[1,2-c]pyrimidine]
≥ 80%: mortality at 200 ppm [1] | mortality at 200 ppm [2] | pest or weed control at 200 ppm [3] | percent effect (mortality or growth inhibition) at 200 ppm [4] | percent effect (mortality or growth inhibition) at 200 ppm [5] | inhibition at 200 ppm [6] | mortality at 200 ppm [7] | mortality at 200 ppm [8] | mortality at 200 ppm [9] | mortality at 200 ppm [10] | inhibition at 200 ppm [11] | percent effect (mortality or growth inhibition) at 200 ppm [12]

CCS(=O)(=O)c1cc(OC(C)(C)C(N)=O)cnc1-c1cn2cnc(C(F)(F)F)cc2n1 [Compound P12, 2-[[5-ethylsulfonyl-6-[7-(trifluoromethyl)imidazo[1,2-c]pyrimidin-2-yl]-3-pyridyl]oxy]-2-methyl-propanamide]
≥ 80%: mortality at 200 ppm [2] | percent effect (mortality or growth inhibition) at 200 ppm [4] | mortality at 200 ppm [10] | inhibition at 200 ppm [11]

CCS(=O)(=O)c1cc(OCSC)cnc1-c1cn2cnc(C(F)(F)F)cc2n1 [Compound P16, 2-[3-ethylsulfonyl-5-(methylsulfanylmethoxy)-2-pyridyl]-7-(trifluoromethyl)imidazo[1,2-c]pyrimidine]
≥ 80%: mortality at 200 ppm [2] | pest or weed control at 200 ppm [3] | percent effect (mortality or growth inhibition) at 200 ppm [4] | percent effect (mortality or growth inhibition) at 200 ppm [5] | inhibition at 200 ppm [6] | mortality at 200 ppm [13] | mortality at 24 ppm [14] | mortality at 200 ppm [7] | mortality at 200 ppm [8] | mortality at 200 ppm [9] | mortality at 200 ppm [10] | percent effect (mortality or growth inhibition) at 200 ppm [12]

CCS(=O)(=O)c1cc(OC)cnc1-c1cn2cnc(C(F)(F)F)cc2n1 [Compound P9, 2-(3-ethylsulfonyl-5-methoxy-2-pyridyl)-7-(trifluoromethyl)imidazo[1,2-c]pyrimidine]
≥ 80%: mortality at 200 ppm [1] | mortality at 200 ppm [2] | pest or weed control at 200 ppm [3] | percent effect (mortality or growth inhibition) at 200 ppm [5] | inhibition at 200 ppm [6] | mortality at 24 ppm [14] | mortality at 200 ppm [7] | mortality at 200 ppm [9] | inhibition at 200 ppm [11] | percent effect (mortality or growth inhibition) at 200 ppm [12]

CCS(=O)(=O)c1cc(OC(C)(C)C#N)cnc1-c1cn2cnc(SC(F)(F)F)cc2n1 [Compound P17, 2-[[5-ethylsulfonyl-6-[7-(trifluoromethylsulfanyl)imidazo[1,2-c]pyrimidin-2-yl]-3-pyridyl]oxy]-2-methyl-propanenitrile]
≥ 80%: mortality at 200 ppm [1] | mortality at 200 ppm [2] | pest or weed control at 200 ppm [3] | percent effect (mortality or growth inhibition) at 200 ppm [4] | percent effect (mortality or growth inhibition) at 200 ppm [5] | mortality at 200 ppm [13] | mortality at 200 ppm [7] | mortality at 200 ppm [8] | mortality at 200 ppm [9] | mortality at 200 ppm [10] | inhibition at 200 ppm [11] | percent effect (mortality or growth inhibition) at 200 ppm [12]

CCS(=O)(=O)c1cc(OC(C)(C)C#N)cnc1-c1cn2cnc(C(F)(F)F)cc2n1 [Compound P13, 2-[[5-ethylsulfonyl-6-[7-(trifluoromethyl)imidazo[1,2-c]pyrimidin-2-yl]-3-pyridyl]oxy]-2-methyl-propanenitrile]
≥ 80%: mortality at 200 ppm [1] | mortality at 200 ppm [2] | pest or weed control at 200 ppm [3] | percent effect (mortality or growth inhibition) at 200 ppm [4] | percent effect (mortality or growth inhibition) at 200 ppm [5] | inhibition at 200 ppm [6] | mortality at 200 ppm [13] | mortality at 200 ppm [7] | mortality at 200 ppm [8] | mortality at 200 ppm [9] | mortality at 200 ppm [10] | percent effect (mortality or growth inhibition) at 200 ppm [12]

CCS(=N)(=O)c1cc(OC(C)(C)C#N)cnc1-c1cn2cnc(C(F)(F)C(F)(F)F)cc2n1 (centres unmarked) [Compound P19, 2-[[5-(ethylsulfonimidoyl)-6-[7-(1,1,2,2,2-pentafluoroethyl)imidazo[1,2-c]pyrimidin-2-yl]-3-pyridyl]oxy]-2-methyl-propanenitrile]
≥ 80%: mortality at 200 ppm [1] | mortality at 200 ppm [2] | pest or weed control at 200 ppm [3] | percent effect (mortality or growth inhibition) at 200 ppm [4] | percent effect (mortality or growth inhibition) at 200 ppm [5] | inhibition at 200 ppm [6] | mortality at 200 ppm [13] | mortality at 24 ppm [14] | mortality at 200 ppm [7] | mortality at 200 ppm [8] | mortality at 200 ppm [9] | mortality at 200 ppm [10] | inhibition at 200 ppm [11] | percent effect (mortality or growth inhibition) at 200 ppm [12]

CCS(=O)(=O)c1cc(OC)cnc1-c1cn2cnc(SC(F)(F)F)cc2n1 [Compound P5, 2-(3-ethylsulfonyl-5-methoxy-2-pyridyl)-7-(trifluoromethylsulfanyl)imidazo[1,2-c]pyrimidine]
≥ 80%: mortality at 200 ppm [1] | mortality at 200 ppm [2] | pest or weed control at 200 ppm [3] | percent effect (mortality or growth inhibition) at 200 ppm [4] | percent effect (mortality or growth inhibition) at 200 ppm [5] | mortality at 200 ppm [7] | mortality at 200 ppm [9] | mortality at 200 ppm [10] | inhibition at 200 ppm [11] | percent effect (mortality or growth inhibition) at 200 ppm [12]

Source: US10945435B2, “Imidazopyrimidine derivatives with sulfur containing phenyl and pyridyl substituents” (SYNGENTA PARTICIPATIONS AG, priority 2017, dated 2021)
